One experiment relates to adult male ICR mice. In words: Ear edema model (Croton oil). It is filed as in vivo, mouse. The settings on record: 3 hours after Croton oil. The protocol: The anti-inflammatory activity of the novel bicyclic CB2 ligands was screened in vivo using an ear edema model in mice. This test system utilizes various inflammation inducers, including Croton oil (CO) and Arachidonic acid (AA) and the outcome is assessed by measuring ear tissue swelling. […] The ability of the test compounds to prevent or diminish the inflammatory response to these stimulants is indicative of their systemic anti-inflammatory capability.
Compound A was dissolved in CREMOPHOR EL®:ethanol and injected i.p. in adult male ICR mice (30 g average body weight, Harlan, Israel) after dilution with sterile 0.9% sodium chloride to desired final concentrations according to required doses. Various doses of compounds were checked ranging from 0 to 30 mg/kg. Each treatment group was composed of 8-10 animals while the vehicle treated group was composed of 16 animals. […] Ear thickness was determined (in 0.01 mm units) 3 hours after CO application using a dial thickness gauge (Mitutoyo, Japan). Finally the ears were trimmed, an ear punch of 6 mm diameter was removed and its weight was measured. The ear edema is expressed as the ratio of ear punch weight of the CO treated ear versus the contralateral Acetone treated ear. Results are calculated as % inhibition as compared to CREMOPHOR EL®:ethanol vehicle treated animals.

In another experiment the test system is Adult female BALB/c mice. It is filed as in vivo, mouse. The settings on record: i.p. twice. The method, then:
Adult female BALB/c mice (20 g average body weight, Harlan, Israel) were sensitized on day 0 and day 1 by application of 30 μl of 0.15% Dinitrofluorobenzene (DNFB) diluted in acetone on the shaved skin of the abdomen. On day 6 the animals were challenged by application of 10 μl of DNFB in acetone on one ear. The contralateral ear was not challenged but received the application of 10 μl acetone. Test compounds were administered at increasing doses from 0 to 15 mg/kg i.p. twice, the first injection was immediately after DNFB challenge (on day 6) and the second injection was 16 hours post challenge (on day 7). Each treatment group comprised at least 7 animals. Dexamethasone (DXM) was used as positive control. Ear thickness was determined (in 0.01 mm units) 24 hours after challenge (and 6 hours after second treatment on day 7) using a dial thickness gauge (Mitutoyo, Japan).
Results are analyzed as ear thickness of DNFB treated over DNFB untreated contralateral ear. The impact of the test compound was further assessed by comparing its mean impact on the animals of the treatment group to the response generated by the appropriate vehicle only.

The source of these data is patent publication US20050020544A1, “Bicyclic CB2 cannabinoid receptor ligands” (priority 2002, published 2005).

Molecules are shown by their SMILES.

A word on the ED50: it is the midpoint of the dose-response relation.

In the experiment with adult male ICR mice (Mus musculus, ip), `CCCCCCC(C)(C)c1cc(O)c(C2CC(=O)C3CC2C3(C)C)c(O)c1` (single isomer, unassigned; (-)) [Compound A, (−)-4-[4-(1,1-Dimethyl-heptyl)2,6-dihydroxy-phenyl]-6,6-dimethyl-bicyclo[3.1.1)heptan-2-one] displayed an ED50 of 30 mg/kg. In addition, the ED50 ear edema in the experiment with adult male ICR mice (i.p.) amounted to 81 µmol/kg.
For `CCCCCCC(C)(C)c1cc(OC)c(C2C=C(CO)C3CC2C3(C)C)c(OC)c1` (single isomer, unassigned; (+)) [HU-308, (+) {4-[4-(1,1-dimethylheptyl)-2,6-dimethoxy-phenyl]-6,6-dimethyl-bicyclo[3.1.1]hept-2-en-2-yl}-methanol, reference compound], the “calculated IC50 reduction in ear thickness” value with Adult female BALB/c mice was 4.8 mg/kg. For the same molecule, in the experiment with Adult female BALB/c mice (doses 0 to 15 mg/kg, 24 hours after challenge), the “maximal inhibition (reduction in ear thickness)” value is about 60%.
